Experiments:
[1] = test system: AGS; experiment: Cell proliferation experiment (CellTiter-Glo); type: cell-based; conditions: Homo sapiens, AGS, 96 h, read-out: IC50(nM) AGS
[2] = biological target: T1, KRAS G12D (Homo sapiens, UniProt P01116, G12D)
[3] = test system: SW620; experiment: Cell proliferation experiment (CellTiter-Glo); type: cell-based; conditions: Homo sapiens, SW-620, 96 h, read-out: IC50(nM) SW620
[4] = biological target: T1, KRAS G12D; experiment: cell-based; conditions: AGS
[5] = in vitro; conditions: mouse, microsomes
[6] = in vitro; conditions: human, microsomes
[7] = in vitro; conditions: rat, microsomes
[8] = in vitro; conditions: dog, microsomes

T1 sequence (P01116 1-188 isoform P01116-2 G12D): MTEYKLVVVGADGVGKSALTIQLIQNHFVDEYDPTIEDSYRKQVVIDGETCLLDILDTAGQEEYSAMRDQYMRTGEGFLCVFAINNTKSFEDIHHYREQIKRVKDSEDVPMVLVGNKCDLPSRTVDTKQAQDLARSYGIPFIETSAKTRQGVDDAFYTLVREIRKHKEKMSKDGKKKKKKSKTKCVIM

| SMILES | IC50 [1] | DC50 [2] | IC50 [3] | Dmax [4] | microsomal CLint [5] | microsomal CLint [6] | microsomal CLint [7] | microsomal CLint [8] |
| --- | --- | --- | --- | --- | --- | --- | --- | --- |
| CCc1c(F)ccc2cc(O)cc(-c3ncc4c(N5CCC[C@@](C)(O)C5)nc(OCC5(CN6C[C@@H]7CN(c8cc([C@H](C(=O)N9C[C@H](O)C[C@H]9C(=O)N[C@@H](C)c9ccc(-c%10scnc%10C)cc9)C(C)C)on8)C[C@@H]7C6)CC5)nc4c3F)c12 [Compound 113] | 8.3 nM | 9.3 nM | 49 nM | 95% | – | – | – | – |
| CCc1c(F)ccc2cc(O)cc(-c3ncc4c(N5CCC[C@@](C)(O)C5)nc(OCC5(CN6CCN(CC7CCN(c8cc([C@H](C(=O)N9C[C@H](O)C[C@H]9C(=O)N[C@@H](C)c9ccc(-c%10scnc%10C)cc9)C(C)C)on8)CC7)CC6)CC5)nc4c3F)c12 [Compound 111] | 20 nM | 21 nM | – | 95% | 10.6 µL/min/mg | 21.7 µL/min/mg | 15.7 µL/min/mg | 8.4 µL/min/mg |
| CCc1c(F)ccc2cc(O)cc(-c3ncc4c(N5CCC[C@@](C)(O)C5)nc(OCC5(CN6CCC(c7ccc(-c8cn([C@H](C(=O)N9C[C@H](O)C[C@H]9C(=O)N[C@@H](C)c9ccc(-c%10scnc%10C)cc9)C(C)C)nn8)cn7)CC6)CC5)nc4c3F)c12 [Compound 203] | 11 nM | 14 nM | 47 nM | 95% | – | – | – | – |
| CCc1c(F)ccc2cc(O)cc(-c3ncc4c(N5CCC[C@@](C)(O)C5)nc(OCCN5CCC(COc6ccc(-c7cn([C@H](C(=O)N8C[C@H](O)C[C@H]8C(=O)N[C@@H](C)c8ccc(-c9scnc9C)cc8)C(C)C)nn7)cc6)CC5)nc4c3F)c12 [Compound 67] | 40 nM | 22 nM | 1720 nM | 78% | – | – | – | – |
| CCc1c(F)ccc2cc(O)cc(-c3ncc4c(N5CCC[C@@](C)(O)C5)nc(OCC5(CN6CCC(c7ccc(-c8cn([C@H](C(=O)N9C[C@H](O)C[C@H]9C(=O)N[C@@H](C)c9ccc(-c%10scnc%10C)cc9)C(C)(C)C)nn8)cc7)CC6)CC5)nc4c3F)c12 [Compound 119] | 37 nM | – | – | – | 10.4 µL/min/mg | 6.1 µL/min/mg | 9.1 µL/min/mg | 14.9 µL/min/mg |
| CCc1c(F)ccc2cc(O)cc(-c3ncc4c(N5CCC[C@@](C)(O)C5)nc(OCC5(CN6CCN(Cc7cn([C@H](C(=O)N8C[C@H](O)C[C@H]8C(=O)N[C@@H](C)c8ccc(-c9scnc9C)cc8)C(C)C)nn7)CC6)CC5)nc4c3F)c12 [Compound 132] | 25 nM | 19 nM | – | 95% | – | – | – | – |
| CCc1c(F)ccc2cc(O)cc(-c3ncc4c(N5CCC[C@@](C)(O)C5)nc(OCC5(CN6CC(N7CCN(c8cc([C@H](C(=O)N9C[C@H](O)C[C@H]9C(=O)N[C@@H](C)c9ccc(-c%10scnc%10C)cc9)C(C)C)on8)CC7)C6)CC5)nc4c3F)c12 [Compound 116] | 27 nM | 30 nM | – | 95% | – | – | – | – |
| CCc1c(F)ccc2cc(O)cc(-c3ncc4c(N5CCC[C@@](C)(O)C5)nc(OCC5(CN6CCC7(CC6)CC(Oc6cc([C@H](C(=O)N8C[C@H](O)C[C@H]8C(=O)N[C@@H](C)c8ccc(-c9scnc9C)cc8)C(C)C)on6)C7)CC5)nc4c3F)c12 [Compound 150] | 11 nM | 14 nM | – | 95% | – | – | – | – |
| CCc1c(F)ccc2cc(O)cc(-c3ncc4c(N5CCC[C@@](C)(O)C5)nc(OCC5(CN6CCC7(CC6)CN(c6cc([C@H](C(=O)N8C[C@H](O)C[C@H]8C(=O)N[C@@H](C)c8ccc(-c9scnc9C)cc8)C(C)C)on6)C7)CC5)nc4c3F)c12 [Compound 105] | 12 nM | 8.9 nM | – | 95% | 13.3 µL/min/mg | 9.9 µL/min/mg | 5.9 µL/min/mg | 28.5 µL/min/mg |
| C=C1CN2[C@H](COC(=O)N3CCC4(CC3)CC(CNC(=O)C[C@H](NC(=O)[C@@H]3C[C@@H](O)CN3C(=O)C(c3cc(C)no3)C(C)C)c3ccc(-c5scnc5C)cc3)C4)CC[C@@]2(COc2nc(N3CCC[C@@](C)(O)C3)c3cnc(-c4cc(O)cc5ccc(F)c(CC)c45)c(F)c3n2)C1 (single isomer, unassigned) [Compound 139] | 84 nM | 31 nM | 2040 nM | 95% | – | – | – | – |
| CCc1c(F)ccc2cc(O)cc(-c3ncc4c(N5CCC[C@@](C)(O)C5)nc(OCC5(CN6CCC(c7cn([C@H](C(=O)N8C[C@H](O)C[C@H]8C(=O)N[C@@H](C)c8ccc(-c9scnc9C)cc8)C(C)C)nn7)CC6)CC5)nc4c3F)c12 [Compound 131, (2S,4R)-1-((S)-2-(4-(1-((((7-(8-ethyl-7-fluoro-3-hydroxynaphthalen-1-yl)-8-fluoro-4-((R)-3-hydroxy-3-methylpiperidin-1-yl)pyrido[4,3-d]pyrimidin-2-yl)oxy)methyl)cyclopropyl)methyl)piperidin-4-yl)-1H-1,2,3-triazol-1-yl)-3-methylbutanoyl)-4-hydroxy-N-(((S)-1-(4-(4-methylthiazol-5-yl)phenyl)ethyl)pyrrolidine-2-carboxamide] | 34 nM | 18 nM | – | 95% | – | – | – | – |
| CCc1c(F)ccc2cc(O)cc(-c3ncc4c(N5CCC[C@@](C)(O)C5)nc(OCC5(CN6CCN(C7CN(c8cc([C@H](C(=O)N9C[C@H](O)C[C@H]9C(=O)N[C@@H](C)c9ccc(-c%10scnc%10C)cc9)C(C)C)on8)C7)CC6)CC5)nc4c3F)c12 [Compound 156] | 9.6 nM | 9.6 nM | – | 95% | – | – | – | – |
| CCc1c(F)ccc2cc(O)cc(-c3ncc4c(N5CCC[C@@](C)(O)C5)nc(OCC5(CN6CCN(c7cc([C@H](C(=O)N8C[C@H](O)C[C@H]8C(=O)N[C@@H](C)c8ccc(-c9scnc9C)cc8)C(C)C)on7)CC6)CC5)nc4c3F)c12 [Compound 112] | 57 nM | 5 nM | – | 95% | – | – | – | – |
| CCc1c(F)ccc2cc(O)cc(-c3ncc4c(N5CCC[C@@](C)(O)C5)nc(OCCN5CCC(CCOc6cc([C@H](C(=O)N7C[C@H](O)C[C@H]7C(=O)N[C@@H](C)c7ccc(-c8scnc8C)cc7)C(C)C)on6)CC5)nc4c3F)c12 [Compound 79] | 44 nM | 44 nM | – | 95% | – | – | – | – |
| CCc1c(F)ccc2cc(O)cc(-c3ncc4c(N5CCC[C@@](C)(O)C5)nc(OCC5(CN6CCC(N7CCC(c8cn([C@H](C(=O)N9C[C@H](O)C[C@H]9C(=O)N[C@@H](C)c9ccc(-c%10scnc%10C)cc9)C(C)C)nn8)CC7)CC6)CC5)nc4c3F)c12 [Compound 137] | 37 nM | 37 nM | – | 95% | – | – | – | – |
| CCc1c(F)ccc2cc(O)cc(-c3ncc4c(N5CCC[C@@](C)(O)C5)nc(OC[C@]56CCCN5[C@@H](COc5cnc(-c7cn([C@H](C(=O)N8C[C@H](O)C[C@H]8C(=O)N[C@@H](C)c8ccc(-c9scnc9C)cc8)C(C)C)nn7)cn5)CC6)nc4c3F)c12 [Compound 159] | 6.2 nM | 2.3 nM | – | 95% | – | – | – | – |
| CCc1c(F)ccc2cc(O)cc(-c3ncc4c(N5CCC[C@@](C)(O)C5)nc(OCC5(CN6CCC(Oc7cc([C@H](C(=O)N8C[C@H](O)C[C@H]8C(=O)N[C@@H](C)c8ccc(-c9scnc9C)cc8)C(C)C)on7)CC6)CC5)nc4c3F)c12 [Compound 114, (2S,4R)-1-((R)-2-(3-((1-((1-(((7-(8-ethyl-7-fluoro-3-hydroxynaphthalen-1-yl)-8-fluoro-4-((R)-3-hydroxy-3-methylpiperidin-1-yl)pyrido[4,3-d]pyrimidin-2-yl)oxy)methyl)cyclopropyl)methyl)piperidin-4-yl)oxy)isoxazol-5-yl)-3-methylbutanoyl)-4-hydroxy-N-((S)-1-(4-(4-methylthiazol-5-yl)phenyl)ethyl)pyrrolidine-2-carboxamide] | 13 nM | 18 nM | – | 95% | 18.9 µL/min/mg | 46.5 µL/min/mg | 25.2 µL/min/mg | 50.5 µL/min/mg |
| CCc1c(F)ccc2cc(O)cc(-c3ncc4c(N5CCC[C@@](C)(O)C5)nc(OC[C@]56CCCN5[C@@H](COc5ncc(-c7cn([C@H](C(=O)N8C[C@H](O)C[C@H]8C(=O)N[C@@H](C)c8ccc(-c9scnc9C)cc8)C(C)C)nn7)cn5)CC6)nc4c3F)c12 [Compound 158, (2S,4R)-1-((S)-2-(4-(2-(((3R,7aR)-7a-(((7-(8-ethyl-7-fluoro-3-hydroxynaphthalen-1-yl)-8-fluoro-4-((R)-3-hydroxy-3-methylpiperidin-1-yl)pyrido[4,3-d]pyrimidin-2-yl)oxy)methyl)cyclopropyl)hexahydro-1H-pyrrolizin-3-yl)methoxy)pyrimidin-5-yl)-1H-1,2,3-triazol-1-yl)-3-methylbutanoyl)-4-hydroxy-N-(((S)-1-(4-(4-methylthiazol-5-yl)phenyl)ethyl)pyrrolidine-2-carboxamide] | 18 nM | 4.1 nM | – | 95% | – | – | – | – |
| CCc1c(F)ccc2cc(O)cc(-c3ncc4c(N5CCC[C@@](C)(O)C5)nc(OCC5(CN6CCC7(CC6)CCN(c6cc([C@H](C(=O)N8C[C@H](O)C[C@H]8C(=O)N[C@@H](C)c8ccc(-c9scnc9C)cc8)C(C)C)on6)CC7)CC5)nc4c3F)c12 [Compound 155, (2S,4R)-1-((R)-2-(3-(9-((1-((7-(8-ethyl-7-fluoro-3-hydroxynaphthalen-1-yl)-8-fluoro-4-((R)-3-hydroxy-3-methylpiperidin-1-yl)pyrido[4,3-d]pyrimidin-2-yl)oxy)methyl)cyclopropyl)methyl)-3,9-diazaspiro[5.5]nonan-3-yl)isoxazol-5-yl)-3-methylbutanoyl)-4-hydroxy-N-((S)-1-(4-(4-(4-methylthiazol-5-yl)phenyl)ethyl)pyrrolidine-2-carboxamide] | 23 nM | 8.7 nM | – | 95% | – | – | – | – |
